Tested on: not given
Experiment: not given
Conditions: not given

melting point [°C]	SMILES
191 to 193	c1cnn(-c2ccnc3ncnn23)c1 [Compound A2, 7-pyrazol-1-yl-[1,2,4]triazolo[1,5-a]pyrimidine]
93 to 95	c1cc(OC[C@H]2CCCN2c2ccnc3ncnn23)c2cccnc2c1 [Compound A5, 5-((R)-1-[1,2,4]triazolo[1,5-a]pyrimidin-7-ylpyrrolidin-2-ylmethoxy)quinoline]

Target: MetAP-2 (Homo sapiens, UniProt P50579)
Experiment: MetAP-2 activity measurement (coupled enzymatic reactions, substrate Met-Arg-Ser, photometric at 450 nm)
Assay type: biochemical
Conditions: Inhibition of MetAP-2; read-out: IC50 enzyme
Method: The MetAP-2 activity is determined by coupling enzymatic reactions. The tripeptide Met-Arg-Ser (MAS) is employed as substrate. The methionine liberated is firstly converted into Metox and H2O2 by L-aminooxidase (AAO). In the second step, the peroxidase (POD) with the aid of the H2O2 catalyses the oxidation of the leukodye dianisidine to dianisidineox, the increase of which is detected photometrically at 450 nm.
MetAP-2 activity can be recorded continuously as kinetics. The reaction scheme illustrates that one mol of dianisidineox is formed per mol of methionene. The MetAP-2 enzyme activity can therefore be calculated directly as Δ absorption per time unit. Qualification of the MetAP-2 activity (mol of Met/time unit) is possible with the aid of the dianisidineox extinction coefficient. The change in extinction per time unit is depicted graphically and a slope calculation is carried out in the visually linear region of the reaction.

Sequence of MetAP-2 (P50579 whole entry, species assumed): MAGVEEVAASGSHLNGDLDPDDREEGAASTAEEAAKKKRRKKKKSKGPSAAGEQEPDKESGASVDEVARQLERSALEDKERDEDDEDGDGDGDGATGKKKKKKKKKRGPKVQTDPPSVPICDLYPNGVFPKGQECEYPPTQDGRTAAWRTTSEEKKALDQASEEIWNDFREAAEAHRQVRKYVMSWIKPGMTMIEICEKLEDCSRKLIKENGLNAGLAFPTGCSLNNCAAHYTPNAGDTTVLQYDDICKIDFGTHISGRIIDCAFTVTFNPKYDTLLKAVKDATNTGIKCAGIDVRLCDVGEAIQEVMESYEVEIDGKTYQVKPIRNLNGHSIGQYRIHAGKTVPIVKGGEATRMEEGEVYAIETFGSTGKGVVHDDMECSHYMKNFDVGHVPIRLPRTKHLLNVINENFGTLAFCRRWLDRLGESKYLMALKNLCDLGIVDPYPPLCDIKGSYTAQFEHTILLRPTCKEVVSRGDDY

SMILES	IC50 [nM]
c1cnn(-c2ccnc3ncnn23)c1 [Compound A2, 7-pyrazol-1-yl-[1,2,4]triazolo[1,5-a]pyrimidine]	> 10000
c1cc(OC[C@H]2CCCN2c2ccnc3ncnn23)c2cccnc2c1 [Compound A5, 5-((R)-1-[1,2,4]triazolo[1,5-a]pyrimidin-7-ylpyrrolidin-2-ylmethoxy)quinoline]	10 to 1000
CC(C)(C)OC(=O)NCCCCN1CCc2cccc(OC[C@H]3CCCN3c3ccnc4ncnn34)c2C1 [Compound A35]	10 to 1000
N#CCCCCOC(=O)N1CCc2cccc(OC[C@H]3CCCN3c3ccnc4ncnn34)c2C1 [Compound A40]	10 to 1000
c1ccc2c(OC[C@H]3CCCN3c3ccnc4ncnn34)ccnc2c1 [Compound A8]	10 to 1000
O=C(OC[C@H]1CCCN1c1ccnc2ncnn12)c1cccc(I)c1 [Compound A45]	10 to 1000
O=C(NCCc1ccc(F)cc1)c1cc(OC[C@H]2CCCN2c2ccnc3ncnn23)c2ccccc2n1 [Compound A12]	10 to 1000
c1ccc2c(OC[C@H]3CCCN3c3ccnc4nsnc34)cccc2c1 [Compound A47]	> 10000
CCNC(=O)c1cc(OC[C@H]2CCCN2c2ccnc3ncnn23)c2ccccc2n1 [Compound A13]	10 to 1000
O=C(c1ccno1)N1CCc2cccc(OC[C@H]3CCCN3c3ccnc4ncnn34)c2C1 [Compound A34]	10 to 1000

Next, values leading:

IC50 [nM]	SMILES
10 to 1000	O=C(OC[C@H]1CCCN1c1ccnc2ncnn12)c1ccccc1I [Compound A68, (R)-1-[1,2,4]Triazolo[1,5-a]pyrimidin-7-yl-pyrrolidin-2-ylmethyl 2-iodobenzoate]
10 to 1000	O=C(OC[C@H]1CCCN1c1ccnc2ncnn12)c1ccccc1 [Compound A71, (R)-1-[1,2,4]Triazolo[1,5-a]pyrimidin-7-yl-pyrrolidin-2-ylmethyl benzoate]
10 to 1000	COC(=O)c1ccc2[nH]c(CC3CCCN3c3ccnc4ncnn34)cc2c1 (stereo not drawn) [Compound A81]
10 to 1000	O=C(OC[C@H]1CCCN1c1ccnc2ncnn12)c1cccc(F)c1 [Compound A52]
> 10000	O=C(OC[C@H]1CCCN1c1ccnc2ncnn12)c1cccc(C(F)(F)F)c1 [Compound A60]
10 to 1000	O=C(OC[C@H]1CCCN1c1ccnc2ncnn12)c1cccc(OC(F)(F)F)c1 [Compound A82, (R)-1-[1,2,4]Triazolo[1,5-a]pyrimidin-7-yl-pyrrolidin-2-ylmethyl 3-trifluoromethoxy-benzoate]
> 10000	Clc1cc(COC[C@H]2CCCN2c2ccnc3ncnn23)cc(Cl)n1 [Compound A65]
10 to 1000	Fc1cccc(COC[C@H]2CCCN2c2ccnc3ncnn23)c1 [Compound A55]
10 to 1000	O=C(OC[C@H]1CCCN1c1ccnc2ncnn12)c1cccnc1Oc1ccccc1 [Compound A62]
1000 to 10000	Ic1cccc(COC[C@H]2CCCN2c2ccnc3ncnn23)c1 [Compound A49]
10 to 1000	NC(=O)CCCC(=O)N1CCc2cccc(OC[C@H]3CCCN3c3ccnc4ncnn34)c2C1 [Compound A53]
> 10000	O=C(O)Cc1ccccc1OC[C@H]1CCCN1c1ccnc2ncnn12 [Compound A57]

Source: patent US8546406B2, “Heterocyclic compounds as metap-2 inhibitors” (Merck Patent GmbH, priority 2009, dated 2013)
